Source: patent US11071726B2, “Treating gastric cancer using combination therapies comprising liposomal irinotecan, oxaliplatin, 5-fluorouracil (and leucovorin)” (Ipsen Biopharm Ltd., priority 2016, dated 2021)
Read-outs that look alike come from different tables or passages of the source.

Tests used:
[1] = cited from earlier work
[2] = single-agent irinotecan 350 mg/m^2 once every-3-weeks, cited from earlier work
[3] = human, in vivo
Topoisomerase I = biological target: T1, Topoisomerase I (Homo sapiens, UniProt P11387); details: metabolite formed by nonspecific carboxylesterases; cited from earlier work
T1 sequence (P11387 1-765): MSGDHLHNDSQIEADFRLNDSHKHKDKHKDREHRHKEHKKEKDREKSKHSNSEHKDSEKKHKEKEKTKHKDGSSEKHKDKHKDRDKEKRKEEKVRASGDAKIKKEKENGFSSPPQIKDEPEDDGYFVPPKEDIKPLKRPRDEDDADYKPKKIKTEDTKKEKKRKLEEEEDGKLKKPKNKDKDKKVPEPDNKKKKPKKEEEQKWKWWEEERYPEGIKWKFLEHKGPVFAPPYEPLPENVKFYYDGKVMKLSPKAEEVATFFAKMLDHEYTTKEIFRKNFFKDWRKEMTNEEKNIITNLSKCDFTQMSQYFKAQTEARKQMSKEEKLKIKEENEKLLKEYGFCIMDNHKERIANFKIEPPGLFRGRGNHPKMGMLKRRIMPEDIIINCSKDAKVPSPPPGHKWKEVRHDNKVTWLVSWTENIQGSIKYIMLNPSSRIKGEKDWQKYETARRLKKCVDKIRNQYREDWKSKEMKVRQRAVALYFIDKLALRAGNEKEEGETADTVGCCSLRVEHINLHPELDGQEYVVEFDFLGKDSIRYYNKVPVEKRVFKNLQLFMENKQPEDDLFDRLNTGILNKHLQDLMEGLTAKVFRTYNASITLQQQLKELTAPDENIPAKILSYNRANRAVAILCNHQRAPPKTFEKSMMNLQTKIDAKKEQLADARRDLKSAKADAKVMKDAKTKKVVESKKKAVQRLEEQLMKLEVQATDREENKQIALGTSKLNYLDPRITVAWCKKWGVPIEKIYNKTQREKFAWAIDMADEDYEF

FOLFIRINOX
incidence of most common Grade 3-4 adverse events (neutropenia, fatigue, vomiting, diarrhea, thrombocytopenia, sensory neuropathy, anemia, elevated ALT, thromboembolism, febrile neutropenia) ([1]; Phase 3 study of the FOLFIRINOX combination): ≥ 5% | toxicity ([1]; first-line treatment): significant toxicity

CCc1c2c(nc3ccc(OC(=O)N4CCC(N5CCCCC5)CC4)cc13)-c1cc3c(c(=O)n1C2)COC(=O)[C@]3(O)CC [irinotecan, (S)-4,11-diethyl-3,4,12,14-tetrahydro-4-hydroxy-3,14-dioxo1H-pyrano[3′,4′:6,7]-indolizino[1,2-b]quinolin-9-yl-[1,4′bipiperidine]-1′-carboxylate]
incidence of grade 4 neutropenia ([2]; patients heterozygous (UGT1A1 6/7 genotype)): 12.5% | incidence of grade 4 neutropenia ([2]; patients homozygous for the UGT1A1*28 allele): ≤ 50% | grade 4 neutropenia ([2]; patients homozygous for the wild-type allele (UGT1A1 6/6 genotype)): no grade 4 neutropenia was observed

irinotecan sucrose octasulfate salt liposome injection [MM-398]
consecutive doses of dose level 1 received by any patient [3]: ≤ 2 | patients administered dose level 1 on day 15 of cycle 1 [3]: 3 | patients administered dose level −1 on days 1 and 15 of cycle 1 [3]: 6

CCc1c2c(nc3ccc(O)cc13)-c1cc3c(c(=O)n1C2)COC(=O)[C@]3(O)CC [SN-38]
activity relative to irinotecan (Topoisomerase I): 100-1000 fold
